Laboratory results as given in article PMC4340362 (ACS Chemical Biology, 2014).
Where two headings read alike, the source gives them in different places.

Test system: MDA-MB-231 breast cancer cells
Assay: Quantitative scratch-wound
Assay type: cell-based
Conditions: Homo sapiens

C[C@@H]1O[C@@H](O[C@H]2C[C@@H](O)[C@]3(CO)[C@H]4[C@H](O)C[C@]5(C)[C@@H](C6=CC(=O)OC6)CC[C@]5(O)[C@@H]4CC[C@]3(O)C2)[C@H](O)[C@H](O)[C@H]1O [Compound 1, ouabain]
IC50 (MDA-MB-231, read-out: Cell migration IC50): 0.173 µM
IC50 (MDA-MB-231, read-out: cell migration): 0.173 µM
